This is an account of results in paper PMC10192568, “Comparison of pharmacokinetic profiles of seven major bioactive components in normal and non-alcoholic fatty liver disease (NAFLD) rats after oral administration of Ling-Gui-Zhu-Gan decoction by UPLC-MS/MS” (Frontiers in Pharmacology, 2023).

Data set [1] can be described thus: Pharmacokinetic study of LGZGD components in plasma of normal and NAFLD rats after oral administration (UPLC-MS/MS). In kind it is in vivo, Male Sprague–Dawley rats. To be noted: for AUC0-∞ value decreased / C max value decreased: NAFLD rats compared with normal rats; for AUC(0-inf) / AUC(0-t) / Cmax / Tmax / half-life / MRT last: Sprague-Dawley, rat; for MRT last: read-out: MRT0-t. The procedure:
Male Sprague–Dawley rats, weighing 200–220 g, SPF grade, were purchased from Shanghai Sippr-BK laboratory animal Co. Ltd. (Shanghai, China) and raised in the Laboratory Animal Center of Shanghai University of Traditional Chinese Medicine. The rats were kept in an environmentally controlled condition: on a 12:12 h light–dark cycle (lights on at 7:00 a.m.) with regulated temperature and humidity, at a temperature of 22°C–24°C and a relative humidity of 60–65%. In the experiment, the rats in the normal group were fed a certified standard rat diet and tap water, while those in the model group were fed a high-fat diet for 8 weeks to construct the NAFLD model (high-fat diet: 2% cholesterol, 10% lard, 0.1% sodium cholate, 10% yolk powder, and 77.9% normal diet). The animal experiment program was approved by the Animal Committee of Shanghai University of Traditional Chinese Medicine (License No.: PZSHUTCM201016001).
An Agilent 1290 UPLC system was combined with an Agilent 6460 series MS/MS system (Agilent Technologies, Santa Clara, CA, United States) to quantify the analytes in the ESI-positive ionization mode. The mass spectrum conditions were as follows: a capillary voltage of 4,000 V; a gas flow rate of 10 L/min; a nebulizer of 30 psi; a gas temperature of 350°C; and a Delta EMV(+) of 200 V. Five microliters of the samples was injected into an Agilent SB-C18 column (2.1 mm × 50 mm, 1.8 μm particles). The analytes were separated using the gradient elution method, and the mobile phase was composed of water (0.05% V/V formic acid) (A) and acetonitrile (B) at a flow rate of 0.4 mL/min (0–1 min, 10–10% B; 1–5 min, 10–90% B; 5–7 min, 90–90% B; and 7–7.1 min, B 90–10%; rebalance for 2 min).
A plasma sample of 50 µL was placed in a 1.5 mL centrifuge tube with 10 µL of schisandrin (IS) solution (50 ng/mL) and mixed for 5 min. The samples were successively extracted with 500 µL of ethyl acetate and treated with 250 µL of methanol, which were then mixed for 5 min and centrifuged at 4°C for 10 min (at 18,000 rpm). All the supernatant was absorbed into another 1.5 mL centrifuge tube, dried under a gentle stream of nitrogen at 37°C, and then added with 50 µL of 50% methanol for reconstruction. After being centrifuged at 4°C for 10 min (at 18,000 rpm), 5 µL of the supernatant was extracted and injected into a chromatographic column for analysis, and the chromatograms were recorded.
The rats were randomly divided into the normal group and the model group. According to the preliminary experiment, the dose was adjusted to about eight times the normal dose ([Gu, 2020]; [Li et al., 2023]). […] The animal research program was approved by the Animal Committee of Shanghai University of Traditional Chinese Medicine. At 0, 0.083, 0.25, 0.5, 0.75, 1, 2, 4, 6, 8, 10, 12, 24, and 48 h after dosing, 150 µL blood samples were collected from the rats' orbital venous plexus into centrifuge tubes containing 10 IU of sodium heparin. After being centrifuged at 5,000 rpm (4°C) for 10 min, the plasma was transferred to 1.5 mL polypropylene tubes and stored at −80°C until the plasma samples were analyzed.
Important pharmacokinetic parameters, which included the maximum plasma concentration (C max), time to maximum concentration (T max), half-life (t 1/2), area under the curve (AUC0-t), and total area under the curve (AUC0-∞), were hereby calculated using the DAS 3.2.8 software. Meanwhile, the pharmacokinetic data of the normal and model rats were compared using the SPSS software (version 21.0). Besides, Spearman rank bivariate correlation coefficient was used to determine the correlation between AUC values and UGT1A1 and nine other transporters. All the calculated data were expressed as mean ± SD. When p < 0.05, the difference was considered significant and statistically significant; and when p < 0.01 or <0.001, the difference was considered very significant.

Data set [2] can be described thus: Stability of the seven components in rat plasma QC samples. In kind it is physicochemical. To be noted: n = 6; for Stability during 24 h at 4°C, RE: auto sampler. How it is done: Stability refers to the ability of the components to retain their chemical properties in the matrix. To analyze the stability of all components in the plasma, six replicates of QC samples at three concentrations were hereby prepared under each condition. The stability of the QC samples at three concentrations was analyzed under different storage conditions: −80°C for 30 days, after three freeze–thaw cycles, and 24 h in an auto sampler at 4°C.

Where [3] appears, read: male, plasma, po, 23 g/kg, Model (NAFLD) group, male SD rats, oral LGZGD extract 23 g/kg, plasma, mean ± SD, n = 6.
Setting [4] is: male, plasma, po, 23 g/kg, Normal group, male SD rats, oral LGZGD extract 23 g/kg, plasma, mean ± SD, n = 6.
Setting [5] is: NAFLD rats compared with the normal group, oral LGZGD.
Where [6] appears, read: Normal group, male SD rats, oral LGZGD extract 23 g/kg, plasma, mean ± SD, n = 6.

Read-outs that look alike come from different tables or passages of the source.

One may read the AUC(0-inf) as total exposure, with the tail of the curve extrapolated. Read a low AUC(0-inf) as less exposure. By AUC(0-t) is commonly meant the area under the concentration-time curve up to a stated or last time point. High values mean more exposure, low ones less exposure. Broadly, the Cmax is the highest concentration seen after dosing. What is called Tmax is the time from dosing to the highest level. As a reminder, the half-life is the time needed for the level to fall by half in the phase considered. Higher therefore signals slow decline. Consider `CC1(C)[C@@H](O[C@H]2O[C@H](C(=O)O)[C@@H](O)[C@H](O)[C@H]2O[C@@H]2O[C@H](C(=O)O)[C@@H](O)[C@H](O)[C@H]2O)CC[C@]2(C)[C@H]3C(=O)C=C4[C@@H]5C[C@@](C)(C(=O)O)CC[C@]5(C)CC[C@@]4(C)[C@]3(C)CC[C@@H]12` [Glycyrrhizic acid, glycyrrhizic acid], for which, in data set [1] (oral LGZGD), the “AUC0-∞ value decreased” value stood at 70.8% and the “C max value decreased” value worked out at 77.4%. Also, in data set [1] (setting [3]), the AUC(0-inf) is 40800 ± 25000 ng·h/mL, the AUC(0-t) amounted to 40700 ± 25100 ng·h/mL, the concentration peaked (Cmax) at 2240 ± 1200 ng/mL and the Tmax was 8.1 ± 4.9 h. Moreover, in data set [1] (setting [3]), the half-life is 5.4 ± 1.4 h and the MRT last is 16 ± 8 h. Besides, in data set [1] (setting [4]), the AUC(0-inf) came out at 82700 ± 10000 ng·h/mL, the AUC(0-t) was 81000 ± 10500 ng·h/mL, the concentration peaked (Cmax) at 6420 ± 2240 ng/mL and the Tmax came to 10.4 ± 1.7 h. In addition, in data set [1] (setting [4]), the half-life is 6.3 ± 3 h and the MRT last came out at 13.7 ± 3.3 h. Besides, in data set [2] (high QC level), the “Stability during 24 h at 4°C, RE” value is −3.3%; the “Three freeze–thaw cycles, RE” value stood at 9.7%; the “−80°C for 30 days, RE” value is given as 2.7%. Also, in data set [2] (low QC level), the “Stability during 24 h at 4°C, RE” value is −1.6%; the “Three freeze–thaw cycles, RE” value is listed as −5.9%; the “−80°C for 30 days, RE” value is listed as −1.0%. For the same compound, in data set [2] (medium QC level), the “Stability during 24 h at 4°C, RE” value is given as −5.6%; the “Three freeze–thaw cycles, RE” value is recorded as −3.7%; the “−80°C for 30 days, RE” value was found to be 1.7%.
As to `C=C1CCC[C@]2(C)C[C@]3(O)OC(=O)C(C)=C3C[C@@H]12` [Atractylenolide III, atractylenolide III], in data set [1] (oral LGZGD), the “AUC0-∞ value decreased” value came out at 70.8% and the “C max value decreased” value was 35.2%. In data set [1] (setting [5]), this compound displayed an MRT0-t prolonged of 31.3%. In addition, in data set [1] (setting [3]), the AUC(0-inf) was found to be 166 ± 45.1 ng·h/mL, the AUC(0-t) is 117 ± 16.1 ng·h/mL, the peak level (Cmax) was 7.9 ± 1.3 ng/mL and the time of peak concentration (Tmax) turned out to be 0.6 ± 0.1 h. Also, in data set [1] (setting [3]), the half-life was 18.3 ± 1.3 h and the MRT last is 19.3 ± 2.9 h. Further, in data set [1] (setting [4]), the AUC(0-inf) was determined as 568 ± 235 ng·h/mL, the AUC(0-t) worked out at 352 ± 21.5 ng·h/mL, the concentration peaked (Cmax) at 12.2 ± 3.4 ng/mL and the Tmax worked out at 0.7 ± 0.1 h. In data set [1] (setting [4]), the half-life was 10.2 ± 4.4 h and the MRT last turned out to be 14.7 ± 1.5 h. In addition, in data set [2] (high QC level), the “Stability during 24 h at 4°C, RE” value is listed as −4.0%; the “Three freeze–thaw cycles, RE” value is −3.8%; the “−80°C for 30 days, RE” value is listed as 14.1%. Further, in data set [2] (low QC level), the “Stability during 24 h at 4°C, RE” value came to 6.4%; the “Three freeze–thaw cycles, RE” value was 13.3%; the “−80°C for 30 days, RE” value is reported as −4.4%. Also, in data set [2] (medium QC level), the “Stability during 24 h at 4°C, RE” value was determined as 5.2%; the “Three freeze–thaw cycles, RE” value is on record as −9.5%; the “−80°C for 30 days, RE” value is on record as −3.5%.
On to `O=C1C[C@@H](c2ccc(O[C@@H]3O[C@H](CO)[C@@H](O)[C@H](O)[C@H]3O)cc2)Oc2cc(O)ccc21` [Liquiritin, liquiritin], for which, in data set [1] (oral LGZGD), the “AUC0-∞ value decreased” value is 53.7% and the “C max value decreased” value was determined as 63.8%. In addition, the MRT0-t prolonged in data set [1] (setting [5]) came to 31.2%. Also, the “t 1/2” value in data set [1] (setting [6]) amounted to 5.2 ± 2.5 h. In data set [1] (setting [3]), the AUC(0-inf) was 53400 ± 22100 ng·h/mL, the AUC(0-t) came to 52800 ± 22300 ng·h/mL, the highest level (Cmax) was 3740 ± 991 ng/mL and the Tmax was found to be 6.8 ± 4.1 h. For the same compound, in data set [1] (setting [3]), the half-life is 6 ± 3.4 h and the MRT last was found to be 10.1 ± 1.3 h. In addition, in data set [1] (setting [4]), the AUC(0-inf) stood at 115000 ± 32900 ng·h/mL, the AUC(0-t) came to 115000 ± 32900 ng·h/mL, the highest concentration (Cmax) was 10300 ± 1850 ng/mL and the Tmax came out at 4.8 ± 1.1 h. For the same compound, the MRT last in data set [1] (setting [4]) is 7.7 ± 1.6 h. Also, in data set [2] (high QC level), the “Stability during 24 h at 4°C, RE” value is −3.0%; the “Three freeze–thaw cycles, RE” value amounted to 4.1%; the “−80°C for 30 days, RE” value was −1.2%. For the same compound, in data set [2] (low QC level), the “Stability during 24 h at 4°C, RE” value worked out at 1.4%; the “Three freeze–thaw cycles, RE” value was 10.5%; the “−80°C for 30 days, RE” value is −4.1%. In data set [2] (medium QC level), the “Stability during 24 h at 4°C, RE” value is reported as 5.4%; the “Three freeze–thaw cycles, RE” value was −1.8%; the “−80°C for 30 days, RE” value is 3.1%.
On to `O=C(/C=C/c1ccc(O[C@@H]2O[C@H](CO)[C@@H](O)[C@H](O)[C@H]2O)cc1)c1ccc(O)cc1O` [Isoliquiritin, isoliquiritin], for which, in data set [1] (oral LGZGD), the “AUC0-∞ value decreased” value stood at 65.8% and the “C max value decreased” value is listed as 31.1%. The MRT decreased in data set [1] (setting [5]) is recorded as 21.7%. In data set [1] (setting [6]), the Tmax stood at 0.6 ± 0.1 h. In data set [1] (setting [3]), this compound had an AUC(0-inf) of 56.9 ± 10.8 ng·h/mL, an AUC(0-t) of 51.9 ± 7.8 ng·h/mL, a Cmax of 4.2 ± 0.8 ng/mL and a half-life of 13.1 ± 7.5 h. Also, in data set [1] (setting [3]), the MRT last came to 15.5 ± 1.8 h. In data set [1] (setting [4]), this compound showed an AUC(0-inf) of 166 ± 10.5 ng·h/mL, an AUC(0-t) of 108 ± 21.2 ng·h/mL, a Cmax of 6.1 ± 1.8 ng/mL and a half-life of 9.2 ± 4.4 h. Also, the MRT last in data set [1] (setting [4]) is 19.8 ± 1.7 h. Besides, in data set [2] (high QC level), the “Stability during 24 h at 4°C, RE” value is on record as −12.7%; the “Three freeze–thaw cycles, RE” value is 3.9%; the “−80°C for 30 days, RE” value is reported as 4.0%. In data set [2] (low QC level), the “Stability during 24 h at 4°C, RE” value is on record as 1.3%; the “Three freeze–thaw cycles, RE” value is −6.8%; the “−80°C for 30 days, RE” value is −1.1%. In data set [2] (medium QC level), the “Stability during 24 h at 4°C, RE” value was 11.0%; the “Three freeze–thaw cycles, RE” value is on record as −3.0%; the “−80°C for 30 days, RE” value is −2.1%.
